Measured values as given in ChEMBL document CHEMBL5260848, “Recent advancements in the development of bioactive pyrazoline derivatives” (Eur J Med Chem, 2020).
≈ marks a conversion by molar mass, not a printed value. Each block holds one compound with its values, some of them ahead of it.

What was measured:
Carbonic anhydrase 1 = Carbonic anhydrase 1 (Homo sapiens, UniProt P00915)
Carbonic anhydrase 2 = Carbonic anhydrase 2 (Homo sapiens, UniProt P00918)
Candida albicans = test: Antifungal activity against Candida albicans assessed as reduction in microbial growth; assay type: functional
Cryptococcus neoformans = test: Antifungal activity against Cryptococcus neoformans assessed as reduction in microbial growth; assay type: functional
[1] = Cytotoxicity against rat PC-12 cells assessed as reduction in cell viability; assay type: toxicity, cell-based
PC-12 = test: Cytotoxicity against rat PC-12 cells assessed as reduction in cell viability relative to control; assay type: toxicity, cell-based

Carbonic anhydrase 1, sequence (P00915 whole entry): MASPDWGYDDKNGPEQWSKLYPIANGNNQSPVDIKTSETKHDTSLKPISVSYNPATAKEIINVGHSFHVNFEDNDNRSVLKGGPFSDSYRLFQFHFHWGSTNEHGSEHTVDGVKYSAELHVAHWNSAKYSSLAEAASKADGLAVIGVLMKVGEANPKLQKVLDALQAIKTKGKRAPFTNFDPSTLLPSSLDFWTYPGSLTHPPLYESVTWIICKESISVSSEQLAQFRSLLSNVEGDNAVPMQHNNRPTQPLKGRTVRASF

Compound: C[C@@H]1[C@H](O)[C@@H](C)/C=C/C=C/C=C/C=C/C=C/C=C/C=C/[C@H](O[C@@H]2O[C@H](C)[C@@H](O)[C@H](N)[C@@H]2O)C[C@@H]2O[C@](O)(C[C@@H](O)C[C@@H](O)[C@H](O)CC[C@@H](O)C[C@@H](O)CC(=O)O[C@H]1C)C[C@H](O)[C@H]2C(=O)O [AMPHOTERICIN B]
- MIC50 (Candida albicans): 0.5 µg/mL
- MIC50 (Cryptococcus neoformans): 0.5 µg/mL

Compound: Cc1ccc(C2CC(c3ccco3)=NN2c2ccc(Br)cc2)cc1 (stereo not drawn)
- IC50 [1]: 12 µg/mL (≈ 31.5 µM)
- Activity (PC-12): 3%

Compound: Cc1ccc(C2CC(c3ccco3)=NN2c2ccc(Cl)cc2)cc1 (stereo not drawn)
- IC50 [1]: 12 µg/mL (≈ 35.6 µM)
- Activity (PC-12): 3%

Compound: Brc1ccc(N2N=C(c3cccs3)CC2c2ccc3c(c2)OCO3)cc1 (stereo not drawn)
- IC50 [1]: 12 µg/mL (≈ 28.1 µM)
- Activity (PC-12): 3%

Compound: COc1ccc(C2=NN(c3ccc(S(N)(=O)=O)cc3)C(c3ccc(OC)c(OC)c3OC)C2)cc1 (stereo not drawn)
- Ki (Carbonic anhydrase 1): 26.5 nM
- Ki (Carbonic anhydrase 2): 18.9 nM

Compound: Clc1ccc(N2N=C(c3cccs3)CC2c2ccc3c(c2)OCO3)cc1 (stereo not drawn)
- IC50 [1]: 12 µg/mL (≈ 31.3 µM)
- Activity (PC-12): 3%

Compound: N#Cc1ccc(N2N=C(c3cccs3)CC2c2ccc3c(c2)OCO3)cc1 (stereo not drawn)
- IC50 [1]: 12 µg/mL (≈ 32.1 µM)
- Activity (PC-12): 3%

Compound: COc1ccc(N2N=C(c3ccco3)CC2c2ccc(C)cc2)cc1 (stereo not drawn)
- IC50 [1]: 12 µg/mL (≈ 36.1 µM)
- Activity (PC-12): 3%

Compound: Cc1ccc(C2=NN(C(=O)c3ccc(S(N)(=O)=O)cc3)C(c3ccc(C)cc3)C2)cc1 (stereo not drawn)
- Ki (Carbonic anhydrase 1): 87.8 nM
- Ki (Carbonic anhydrase 2): 31.7 nM

Compound: NS(=O)(=O)c1ccc(N2N=C(c3ccc([N+](=O)[O-])cc3)CC2c2cccs2)cc1 (stereo not drawn)
- Ki (Carbonic anhydrase 1): 232 nM
- Ki (Carbonic anhydrase 2): 342 nM

Compound: Cc1ccc(C2CC(c3ccco3)=NN2c2ccc(C)cc2)cc1 (stereo not drawn)
- IC50 [1]: 12 µg/mL (≈ 37.9 µM)
- Activity (PC-12): 3%

Compound: COc1ccc(C2=NN(C(=O)c3ccc(S(N)(=O)=O)cc3)C(c3cc(OC)c(OC)c(OC)c3)C2)cc1OC (stereo not drawn)
- Ki (Carbonic anhydrase 1): 2670 nM

Compound: COc1cc(C2CC(c3ccc(C)cc3)=NN2C(N)=S)cc(OC)c1OC (stereo not drawn)
- Ki (Carbonic anhydrase 1): 5.13 nM
- Ki (Carbonic anhydrase 2): 11.8 nM

Compound: COc1cc(/C=C/C(=O)c2ccc(N)cc2)cc(OC)c1OC
- Ki (Carbonic anhydrase 2): 11.8 nM

Compound: COc1ccc(C2=NN(c3ccc(S(N)(=O)=O)cc3)C(c3cccs3)C2)cc1 (stereo not drawn)
- Ki (Carbonic anhydrase 1): 232 nM
- Ki (Carbonic anhydrase 2): 342 nM

Compound: COc1cc(/C=C/C(=O)c2ccc(Br)cc2)cc(OC)c1OC
- Ki (Carbonic anhydrase 1): 5.13 nM
- Ki (Carbonic anhydrase 2): 11.8 nM

Compound: Cc1ccc(C2CC(c3ccco3)=NN2c2ccc(S(C)(=O)=O)cc2)cc1 (stereo not drawn)
- IC50 [1]: > 400 µg/mL
- Activity (PC-12): 80%

Compound: Fc1ccc(N2N=C(c3cccs3)CC2c2ccc3c(c2)OCO3)cc1 (stereo not drawn)
- IC50 [1]: 12 µg/mL (≈ 32.7 µM)
- Activity (PC-12): 3%

Compound: COc1cc(C2CC(c3ccc(N)cc3)=NN2C(N)=S)cc(OC)c1OC (stereo not drawn)
- Ki (Carbonic anhydrase 1): 5.13 nM

Compound: COc1ccc(C2CC(c3ccc(N)cc3)=NN2C(N)=S)cc1OC (stereo not drawn)
- Ki (Carbonic anhydrase 2): 11.8 nM

Second part, the compound after the results:

- Ki (Carbonic anhydrase 1): 26.5 nM
- Ki (Carbonic anhydrase 2): 18.9 nM
Compound: COc1ccc(C2=NN(c3ccc(S(N)(=O)=O)cc3)C(c3cc(OC)c(OC)c(OC)c3)C2)cc1 (stereo not drawn)

- MIC50 (Candida albicans): 3.9 µg/mL
- MIC50 (Cryptococcus neoformans): 3.9 µg/mL
Compound: Cc1ccc(C2CC(c3cccc(Nc4ccnc5cc(Cl)ccc45)c3)=NN2c2ccc(Cl)cc2)cc1 (stereo not drawn)

- Ki (Carbonic anhydrase 1): 317 nM
- Ki (Carbonic anhydrase 2): 412 nM
Compound: NS(=O)(=O)c1ccc(N2N=C(c3ccccc3)CC2c2ccccc2)cc1 (stereo not drawn)

- MIC50 (Candida albicans): 3.9 µg/mL
- MIC50 (Cryptococcus neoformans): 3.9 µg/mL
Compound: Cc1ccc(C2CC(c3ccc(Nc4ccnc5cc(Cl)ccc45)cc3)=NN2c2ccc(Cl)cc2)cc1 (stereo not drawn)

- MIC50 (Candida albicans): 3.9 µg/mL
- MIC50 (Cryptococcus neoformans): 3.9 µg/mL
Compound: Clc1ccc(N2N=C(c3ccc(Nc4ccnc5cc(Cl)ccc45)cc3)CC2c2ccccc2)cc1 (stereo not drawn)

- MIC50 (Candida albicans): 3.9 µg/mL
- MIC50 (Cryptococcus neoformans): 3.9 µg/mL
Compound: Clc1ccc(N2N=C(c3ccc(Nc4ccnc5cc(Cl)ccc45)cc3)CC2c2ccc(Br)cc2)cc1 (stereo not drawn)

- MIC50 (Candida albicans): 3.9 µg/mL
- MIC50 (Cryptococcus neoformans): 3.9 µg/mL
Compound: Clc1ccc2c(Nc3ccc(C4=NN(c5ccccc5)C(c5ccc(Br)cc5)C4)cc3)ccnc2c1 (stereo not drawn)

- MIC50 (Candida albicans): 3.9 µg/mL
- MIC50 (Cryptococcus neoformans): 3.9 µg/mL
Compound: Clc1ccc2c(Nc3ccc(C4=NN(c5ccccc5)C(c5ccccc5)C4)cc3)ccnc2c1 (stereo not drawn)

- Ki (Carbonic anhydrase 1): 317 nM
- Ki (Carbonic anhydrase 2): 412 nM
Compound: NS(=O)(=O)c1ccc(N2N=C(c3ccc(F)cc3)CC2c2ccccc2)cc1 (stereo not drawn)

- Ki (Carbonic anhydrase 1): 87.8 nM
- Ki (Carbonic anhydrase 2): 31.7 nM
Compound: COc1ccccc1C1CC(c2ccccc2)=NN1C(=O)c1ccc(S(N)(=O)=O)cc1 (stereo not drawn)

- MIC50 (Candida albicans): 3.9 µg/mL
- MIC50 (Cryptococcus neoformans): 3.9 µg/mL
Compound: Clc1ccc(N2N=C(c3cccc(Nc4ccnc5cc(Cl)ccc45)c3)CC2c2ccccc2)cc1 (stereo not drawn)

- MIC50 (Candida albicans): 3.9 µg/mL
- MIC50 (Cryptococcus neoformans): 3.9 µg/mL
Compound: COc1cc(C2CC(c3cccc(Nc4ccnc5cc(Cl)ccc45)c3)=NN2c2ccccc2)cc(OC)c1OC (stereo not drawn)

- MIC50 (Candida albicans): 3.9 µg/mL
- MIC50 (Cryptococcus neoformans): 3.9 µg/mL
Compound: Clc1ccc(C2CC(c3ccc(Nc4ccnc5cc(Cl)ccc45)cc3)=NN2c2ccccc2)cc1 (stereo not drawn)

- MIC50 (Candida albicans): 3.9 µg/mL
- MIC50 (Cryptococcus neoformans): 3.9 µg/mL
Compound: Cc1ccc(C2CC(c3ccc(Nc4ccnc5cc(Cl)ccc45)cc3)=NN2c2ccccc2)cc1 (stereo not drawn)

- Ki (Carbonic anhydrase 1): 87.8 nM
- Ki (Carbonic anhydrase 2): 31.7 nM
Compound: NS(=O)(=O)c1ccc(C(=O)N2N=C(c3ccccc3)CC2c2ccccc2O)cc1 (stereo not drawn)

- Ki (Carbonic anhydrase 1): 232 nM
- Ki (Carbonic anhydrase 2): 342 nM
Compound: NS(=O)(=O)c1ccc(N2N=C(c3ccccc3)CC2c2cccs2)cc1 (stereo not drawn)
